Earlier results in US5843891A, “Pharmaceutical acceptable compositions containing an alcohol and a hydrophobic drug” (priority 1993, dated 1998).

conditions: in water at 20° C.

solubility in water | Structure (SMILES)
infinitely soluble | CCO [ethyl alcohol]
0.6 g per 100 g | CCCCCCO [Example 1-hexyl, 1-hexyl]
0.05 g per 100 g | CCCCCCCCO [1-octyl alcohol]

Structure (SMILES) | solubility in water
CCCCCCCCCCO [1-decyl alcohol] | essentially insoluble
